Tests used:
[1] = tested on: NFATc1-GFP localization in Ins1 cells; test: NFATc1-GFP nuclear localization; assay type: cell-based; details: low glucose
Excerpt: Figure 6 AP compounds induce β-cell proliferation through activation of the calcineurin–NFAT pathway. (a) AP compounds stimulate NFATc1-GFP nuclear localization. […] Scale bar, 50 μm. […] Scale bar, 50 μm.

[2] = tested on: FAK2 (PTK2); test: Kinase profiling; assay type: biochemical, human
Excerpt: (§1) ; Fig. 5a; Supplementary Table 1). We focused on Dyrk1a because other kinases inhibited by aminopyrazine compounds were not highly expressed in β-cells and because Dyrk1a was known to inhibit the NFAT pathway that was previously implicated in β-cell proliferation. We used molecular modelling to dock the aminopyrazine compounds into the published structure of Dyrk1a (protein databank accession code 2vx3.pdb; Fig. 5b).

[3] = tested on: Wnt-driven luciferase reporter in TM3 cells; test: Wnt-driven luciferase reporter gene (Super Top Flash); assay type: cell-based
Excerpt: Supplementary Figure 8. Selective Dyrk1a inhibition is sufficient to induce β-cell proliferation.
Top Flash) in TM3 cells (mean ± SD; n=3). (b) GNF6324-treated primary rat islets were
immunostained for nuclear localization of β-catenin in EdU and insulin co-positive cells. Co-
vehicle control cells. Scale bar = 20 µm. (c-e) Selective Dyrk1a inhibitors stimulate EdU
Beta-catenin/Insulin/DAPI
% E d U (+ ) b e ta c e lls
% E d U (+ ) in s u lin (+ ) c e lls […]
% E d U ( + ) in s u lin (+ ) c e lls C o n tro l
(1 picture or pasted object on this page, not shown here)

[4] = biological target: T1, ZAP70 (Homo sapiens, UniProt P43403); test: Kinase profiling; assay type: biochemical; details: read-out: Percent inhibition, ZAP70; for inhibition at 1 µM: Conc 1000 nM
T1 construct: purchased Ambit (KINOMEscan)
T1 sequence (P43403 1-619): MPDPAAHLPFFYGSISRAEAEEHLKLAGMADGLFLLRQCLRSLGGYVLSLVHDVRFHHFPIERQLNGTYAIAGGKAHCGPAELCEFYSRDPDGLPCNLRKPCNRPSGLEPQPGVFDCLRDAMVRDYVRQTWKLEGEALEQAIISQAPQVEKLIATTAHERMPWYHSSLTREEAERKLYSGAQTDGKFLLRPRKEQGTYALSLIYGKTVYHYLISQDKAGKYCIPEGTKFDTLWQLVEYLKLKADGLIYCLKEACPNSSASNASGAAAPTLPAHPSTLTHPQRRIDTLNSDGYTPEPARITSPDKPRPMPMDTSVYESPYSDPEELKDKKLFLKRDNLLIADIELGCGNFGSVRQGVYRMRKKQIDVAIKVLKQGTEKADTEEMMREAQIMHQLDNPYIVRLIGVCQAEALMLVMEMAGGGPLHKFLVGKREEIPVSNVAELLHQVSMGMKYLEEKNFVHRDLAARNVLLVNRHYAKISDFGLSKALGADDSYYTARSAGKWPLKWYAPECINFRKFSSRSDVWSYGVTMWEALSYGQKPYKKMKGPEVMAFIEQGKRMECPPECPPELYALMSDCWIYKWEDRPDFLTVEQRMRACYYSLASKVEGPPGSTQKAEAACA
Excerpt: as §1

[5] = biological target: T2, MAPK1 (ERK2) (Homo sapiens, UniProt P28482); test: Kinase profiling; assay type: biochemical; details: Conc 1000 nM; read-out: Percent inhibition, MAPK1 (ERK2)
T2 construct: purchased Ambit (KINOMEscan)
Excerpt: as §1

[6] = biological target: T3, p38alpha (MAPK14) (Homo sapiens, UniProt Q16539); test: Kinase profiling; assay type: biochemical; details: Conc 1000 nM; read-out: Percent inhibition, p38alpha (MAPK14)
T3 construct: purchased Ambit (KINOMEscan)
Excerpt: as §1

[7] = biological target: T4, PDGFRa (Homo sapiens, UniProt P16234); test: Kinase profiling; assay type: biochemical; details: read-out: Percent inhibition, PDGFRa; for inhibition at 1 µM: Conc 1000 nM
T4 construct: purchased Ambit (KINOMEscan)
Excerpt: as §1

[8] = biological target: T5, PLK1 (Homo sapiens, UniProt P53350); test: Kinase profiling; assay type: biochemical; details: Conc 1000 nM; read-out: Percent inhibition, PLK1
T5 construct: purchased Ambit (KINOMEscan)
Excerpt: as §1

[9] = biological target: T6, AURORA-A (Homo sapiens, UniProt O14965); test: Kinase profiling; assay type: biochemical; details: read-out: Percent inhibition, AURORA-A; for inhibition at 1 µM: Conc 1000 nM
T6 construct: purchased Ambit KINOMEscan
T6 sequence (O14965 1-403): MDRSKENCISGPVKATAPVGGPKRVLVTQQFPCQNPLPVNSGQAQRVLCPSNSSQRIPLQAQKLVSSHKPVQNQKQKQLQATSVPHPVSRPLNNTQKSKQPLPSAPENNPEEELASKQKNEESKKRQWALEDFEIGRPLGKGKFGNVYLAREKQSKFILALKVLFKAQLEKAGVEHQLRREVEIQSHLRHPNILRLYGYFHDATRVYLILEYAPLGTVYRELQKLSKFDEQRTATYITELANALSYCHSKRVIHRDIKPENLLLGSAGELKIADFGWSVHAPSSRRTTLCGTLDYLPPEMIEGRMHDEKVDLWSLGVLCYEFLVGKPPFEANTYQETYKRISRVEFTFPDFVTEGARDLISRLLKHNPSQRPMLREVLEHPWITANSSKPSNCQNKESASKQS
Excerpt: as §1

[10] = biological target: T7, c-Kit (Homo sapiens, UniProt P10721); test: Kinase profiling; assay type: biochemical; details: Conc 1000 nM; read-out: Percent inhibition, c-Kit
T7 construct: purchased Ambit KINOMEscan
Excerpt: as §1

[11] = biological target: T8, SRC (Homo sapiens, UniProt P12931); test: Kinase profiling; assay type: biochemical; details: Conc 1000 nM; read-out: Percent inhibition, SRC
T8 construct: purchased Ambit (KINOMEscan)
Excerpt: as §1

[12] = biological target: T9, SYK (Homo sapiens, UniProt P43405); test: Kinase profiling; assay type: biochemical; details: read-out: Percent inhibition, SYK; for inhibition at 1 µM: Conc 1000 nM
T9 construct: purchased Ambit (KINOMEscan)
Excerpt: as §1

[13] = biological target: T10, LCK (Homo sapiens, UniProt P06239); test: Kinase profiling; assay type: biochemical; details: Conc 1000 nM; read-out: Percent inhibition, LCK
T10 construct: purchased Ambit (KINOMEscan)
Excerpt: as §1

[14] = tested on: human islets; test: Human islets treated 7 days: DNA, ATP, IEQ, insulin content, GSIS; assay type: cell-based; details: for DNA and ATP content and islet equivalent units (IEQ) compared with vehicle / insulin secretory capacity (GSIS): 6.7 μM GNF7156 or 2 μM GNF4877
Description: Human islets were evaluated for glucose stimulated insulin secretion using standard methods. Secreted insulin was monitored using an ELISA (Meso-scale Devices) and normalized to total DNA (PicoGreen, Invitrogen).
Rat or human β-cell proliferation assays were performed using dissociated primary rat or human islets. Islets were treated with the indicated compounds in the presence of EdU for 4 days before fixing and staining. EdU incorporation was measured by click reaction with AlexaFluor-647-azide (Invitrogen). For intact islet assays, primary human islets were treated for 7 or 8 days (as indicated in the legend). Rat dissociated islets were cultured in RPMI medium containing 10% FBS and human dissociated islets were cultured in PIM-S media (Prodo laboratories) with 10% human […].

T4 sequence (P16234 24-1089): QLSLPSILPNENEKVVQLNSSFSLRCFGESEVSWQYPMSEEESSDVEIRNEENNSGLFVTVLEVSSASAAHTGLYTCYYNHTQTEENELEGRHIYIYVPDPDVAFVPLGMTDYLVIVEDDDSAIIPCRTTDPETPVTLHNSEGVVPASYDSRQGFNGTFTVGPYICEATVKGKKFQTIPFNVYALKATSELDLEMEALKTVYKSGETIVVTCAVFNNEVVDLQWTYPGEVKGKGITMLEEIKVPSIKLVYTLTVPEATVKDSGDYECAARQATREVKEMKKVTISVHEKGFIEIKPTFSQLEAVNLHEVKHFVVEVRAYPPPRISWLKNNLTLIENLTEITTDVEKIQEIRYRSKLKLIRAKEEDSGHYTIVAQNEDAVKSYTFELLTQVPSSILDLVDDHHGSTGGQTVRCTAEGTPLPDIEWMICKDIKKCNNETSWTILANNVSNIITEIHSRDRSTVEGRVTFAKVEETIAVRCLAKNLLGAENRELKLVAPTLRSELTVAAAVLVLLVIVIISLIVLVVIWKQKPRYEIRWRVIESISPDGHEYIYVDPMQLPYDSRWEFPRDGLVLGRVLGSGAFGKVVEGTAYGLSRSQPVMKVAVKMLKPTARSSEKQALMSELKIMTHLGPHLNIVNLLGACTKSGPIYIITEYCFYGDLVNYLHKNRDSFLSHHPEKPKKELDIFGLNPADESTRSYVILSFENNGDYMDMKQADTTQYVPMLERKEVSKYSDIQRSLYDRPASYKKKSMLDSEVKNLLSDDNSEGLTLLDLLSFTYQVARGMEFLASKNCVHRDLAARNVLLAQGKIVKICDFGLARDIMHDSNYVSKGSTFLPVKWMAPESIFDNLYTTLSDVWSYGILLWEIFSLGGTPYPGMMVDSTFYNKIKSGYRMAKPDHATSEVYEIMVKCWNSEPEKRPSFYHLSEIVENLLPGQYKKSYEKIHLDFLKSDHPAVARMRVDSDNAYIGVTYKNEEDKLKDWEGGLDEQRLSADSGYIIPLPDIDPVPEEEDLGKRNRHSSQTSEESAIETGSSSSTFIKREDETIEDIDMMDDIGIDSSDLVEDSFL
T2 sequence (P28482 whole entry): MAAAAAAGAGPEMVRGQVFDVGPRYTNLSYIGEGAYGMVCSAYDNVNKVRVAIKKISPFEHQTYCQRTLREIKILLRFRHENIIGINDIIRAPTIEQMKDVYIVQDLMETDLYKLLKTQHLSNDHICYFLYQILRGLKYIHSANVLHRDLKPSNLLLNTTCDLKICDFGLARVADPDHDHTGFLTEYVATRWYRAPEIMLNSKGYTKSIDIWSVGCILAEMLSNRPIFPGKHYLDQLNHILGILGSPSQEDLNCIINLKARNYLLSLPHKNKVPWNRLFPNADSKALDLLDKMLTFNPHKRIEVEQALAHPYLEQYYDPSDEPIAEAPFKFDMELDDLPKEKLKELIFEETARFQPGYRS
T8 sequence (P12931 whole entry): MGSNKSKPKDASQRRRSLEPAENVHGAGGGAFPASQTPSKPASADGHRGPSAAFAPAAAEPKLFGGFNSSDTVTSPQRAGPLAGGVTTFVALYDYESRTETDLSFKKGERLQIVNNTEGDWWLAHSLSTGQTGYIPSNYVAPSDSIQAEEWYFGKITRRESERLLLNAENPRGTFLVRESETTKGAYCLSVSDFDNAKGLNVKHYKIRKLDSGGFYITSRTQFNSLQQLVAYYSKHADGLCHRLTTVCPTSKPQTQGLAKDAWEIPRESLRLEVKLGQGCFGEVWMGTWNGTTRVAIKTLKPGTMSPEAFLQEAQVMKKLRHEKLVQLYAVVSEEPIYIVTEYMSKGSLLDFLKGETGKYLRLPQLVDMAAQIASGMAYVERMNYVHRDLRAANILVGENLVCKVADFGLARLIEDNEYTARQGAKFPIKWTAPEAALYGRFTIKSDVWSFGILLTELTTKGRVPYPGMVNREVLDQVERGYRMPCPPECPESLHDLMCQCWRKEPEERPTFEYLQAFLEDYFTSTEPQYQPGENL
T10 sequence (P06239 whole entry): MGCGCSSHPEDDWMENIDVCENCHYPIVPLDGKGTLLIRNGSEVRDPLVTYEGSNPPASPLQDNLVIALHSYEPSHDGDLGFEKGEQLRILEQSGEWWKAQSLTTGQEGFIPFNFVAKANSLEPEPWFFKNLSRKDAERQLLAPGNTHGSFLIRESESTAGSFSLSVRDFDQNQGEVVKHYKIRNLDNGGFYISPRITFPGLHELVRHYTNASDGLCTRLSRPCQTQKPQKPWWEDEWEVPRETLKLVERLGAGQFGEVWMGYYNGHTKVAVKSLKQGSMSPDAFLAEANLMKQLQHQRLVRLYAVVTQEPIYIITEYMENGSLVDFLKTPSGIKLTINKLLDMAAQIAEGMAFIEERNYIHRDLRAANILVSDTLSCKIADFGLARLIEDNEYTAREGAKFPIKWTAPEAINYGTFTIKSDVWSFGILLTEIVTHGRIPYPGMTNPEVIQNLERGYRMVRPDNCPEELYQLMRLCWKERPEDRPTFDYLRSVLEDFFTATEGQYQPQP
T7 sequence (P10721 26-976): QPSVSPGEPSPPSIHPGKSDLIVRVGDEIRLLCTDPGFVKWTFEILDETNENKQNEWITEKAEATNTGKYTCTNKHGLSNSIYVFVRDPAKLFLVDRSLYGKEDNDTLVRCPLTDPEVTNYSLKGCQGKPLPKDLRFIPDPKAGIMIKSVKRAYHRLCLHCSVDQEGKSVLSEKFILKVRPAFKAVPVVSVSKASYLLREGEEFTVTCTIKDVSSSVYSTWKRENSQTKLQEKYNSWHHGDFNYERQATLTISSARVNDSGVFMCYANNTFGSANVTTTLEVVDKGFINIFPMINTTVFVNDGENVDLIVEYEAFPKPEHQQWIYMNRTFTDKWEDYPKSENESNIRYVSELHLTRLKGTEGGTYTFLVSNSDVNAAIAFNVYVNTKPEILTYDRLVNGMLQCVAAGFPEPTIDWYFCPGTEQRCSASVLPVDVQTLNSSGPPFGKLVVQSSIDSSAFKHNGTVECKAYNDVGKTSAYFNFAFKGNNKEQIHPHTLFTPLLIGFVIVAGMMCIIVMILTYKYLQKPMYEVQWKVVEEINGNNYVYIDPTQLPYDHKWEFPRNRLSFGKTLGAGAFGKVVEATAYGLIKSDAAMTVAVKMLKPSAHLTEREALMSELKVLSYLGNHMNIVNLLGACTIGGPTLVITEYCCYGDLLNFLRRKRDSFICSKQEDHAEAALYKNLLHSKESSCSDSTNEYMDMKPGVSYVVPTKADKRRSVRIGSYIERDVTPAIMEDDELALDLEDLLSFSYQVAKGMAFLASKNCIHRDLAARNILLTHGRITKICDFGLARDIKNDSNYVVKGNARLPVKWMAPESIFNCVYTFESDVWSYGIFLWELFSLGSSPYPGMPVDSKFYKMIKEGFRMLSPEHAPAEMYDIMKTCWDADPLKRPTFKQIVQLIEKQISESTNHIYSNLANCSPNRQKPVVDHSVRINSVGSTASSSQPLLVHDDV
T5 sequence (P53350 whole entry): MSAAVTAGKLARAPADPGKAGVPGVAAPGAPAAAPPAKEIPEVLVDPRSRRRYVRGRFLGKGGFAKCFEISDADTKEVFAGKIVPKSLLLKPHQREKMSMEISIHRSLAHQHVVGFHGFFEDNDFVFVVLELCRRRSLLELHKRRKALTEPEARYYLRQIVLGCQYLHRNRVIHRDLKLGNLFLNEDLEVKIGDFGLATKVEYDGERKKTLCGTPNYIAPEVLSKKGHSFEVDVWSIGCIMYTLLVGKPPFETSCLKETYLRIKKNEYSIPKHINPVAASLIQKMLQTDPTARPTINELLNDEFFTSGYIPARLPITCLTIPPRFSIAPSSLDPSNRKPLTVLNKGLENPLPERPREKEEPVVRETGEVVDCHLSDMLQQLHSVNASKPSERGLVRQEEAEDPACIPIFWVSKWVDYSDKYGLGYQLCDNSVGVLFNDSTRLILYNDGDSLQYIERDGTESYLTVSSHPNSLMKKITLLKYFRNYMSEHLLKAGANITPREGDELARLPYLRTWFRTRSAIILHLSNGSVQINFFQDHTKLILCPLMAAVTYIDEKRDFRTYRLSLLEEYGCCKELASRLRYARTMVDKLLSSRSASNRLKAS
T3 sequence (Q16539 whole entry): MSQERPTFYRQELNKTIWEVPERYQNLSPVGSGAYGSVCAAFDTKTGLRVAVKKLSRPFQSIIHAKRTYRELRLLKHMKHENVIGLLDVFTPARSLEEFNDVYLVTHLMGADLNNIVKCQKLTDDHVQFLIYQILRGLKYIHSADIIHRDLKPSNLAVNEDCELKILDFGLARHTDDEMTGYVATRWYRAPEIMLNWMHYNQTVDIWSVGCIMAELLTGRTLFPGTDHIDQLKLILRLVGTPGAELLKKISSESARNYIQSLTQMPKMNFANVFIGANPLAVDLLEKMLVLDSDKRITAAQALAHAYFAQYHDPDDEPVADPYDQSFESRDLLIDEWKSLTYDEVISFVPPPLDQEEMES

SMILES | NFATc1-GFP nuclear localization [1] | Percent inhibition, FAK2 (PTK2) ([2]; Conc 1000 nM) [%] | induction of Wnt-driven luciferase reporter gene [3] | inhibition at 1 µM [4] [%] | inhibition at 1 µM [5] [%] | inhibition at 1 µM [6] [%] | inhibition at 1 µM [7] [%] | inhibition at 1 µM [8] [%] | inhibition at 1 µM [9] [%] | inhibition at 1 µM [10] [%] | inhibition at 1 µM [11] [%] | inhibition at 1 µM [12] [%] | inhibition at 1 µM [13] [%] | DNA and ATP content and islet equivalent units (IEQ) compared with vehicle [14] | insulin secretory capacity (GSIS) [14] | other results
CC(C)Oc1ccc(F)c(-c2cnc(N)c(C(=O)Nc3cnccc3N3CCC[C@@H](C(=O)O)C3)n2)c1 [GNF4877] | caused marked nuclear localization of NFATc1-GFP | 70 | induce a Wnt-driven luciferase reporter gene | 94 | 7 | 6 | 88 | 22 | 84 | 77 | 64 | 95 | 43 | increases in DNA and ATP content and an increase in islet equivalent units | maintained insulin secretory capacity | Percent inhibition, FAK2 (PTK2) ([2]; Conc 200 nM): 9%; inhibition at 0.2 µM ([4]; Conc 200 nM): 0%; inhibition at 0.2 µM ([7]; Conc 200 nM): 0%; inhibition at 0.2 µM ([9]; Conc 200 nM): 0%; inhibition at 0.2 µM ([12]; Conc 200 nM): 89%
Nc1ncc(-c2ccccc2)nc1C(=O)Nc1cnccc1N1CCC(C(=O)O)CC1 [GNF7156] | caused marked nuclear localization of NFATc1-GFP | 92 | induce a Wnt-driven luciferase reporter gene | 70 | 6 | 9 | 78 | 85 | 95 | 49 | 61 | 93 | 31 | increases in DNA and ATP content and an increase in islet equivalent units | maintained insulin secretory capacity | insulin content of treated human islets ([14]; 6.7 μM GNF7156): slightly reduced insulin content
